Drawing on patent US11976083B2, “Inhibitors of peptidylarginine deiminases” (Gilead Sciences, Inc., priority 2020, dated 2024), this text covers IC50 for 13 compounds.

The assay addresses T1, human PAD4 (Homo sapiens, UniProt Q9UM07).
T1 construct: human PAD4 (NM_012387), A2-P663, was PCR amplified; His-SUMO (N, cleaved yes); made in house; host or cells: E. coli BL21(DE3)
In words: In vitro PAD4 BAEE biochemical assay. Particulars: BAEE substrate 3 mM, 5 nM PAD4, 2 mM calcium chloride; geometric mean of multiple experiments. The method in brief:
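Ammonia produced by BAEE deimination (3 mM substrate, 2 h, 25 °C) was read as fluorescent isoindole after o-phthalaldehyde/DTT derivatization, ex 405 nm/em 535 nm. Human PAD4 at 5 nM final, 2 mM calcium, pH 7.6 MOPS; compound preincubated 30 min. IC50s, normalized to BB-Cl-Amidine and DMSO controls, were geometric-mean averaged.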

T1 sequence (Q9UM07 2-663): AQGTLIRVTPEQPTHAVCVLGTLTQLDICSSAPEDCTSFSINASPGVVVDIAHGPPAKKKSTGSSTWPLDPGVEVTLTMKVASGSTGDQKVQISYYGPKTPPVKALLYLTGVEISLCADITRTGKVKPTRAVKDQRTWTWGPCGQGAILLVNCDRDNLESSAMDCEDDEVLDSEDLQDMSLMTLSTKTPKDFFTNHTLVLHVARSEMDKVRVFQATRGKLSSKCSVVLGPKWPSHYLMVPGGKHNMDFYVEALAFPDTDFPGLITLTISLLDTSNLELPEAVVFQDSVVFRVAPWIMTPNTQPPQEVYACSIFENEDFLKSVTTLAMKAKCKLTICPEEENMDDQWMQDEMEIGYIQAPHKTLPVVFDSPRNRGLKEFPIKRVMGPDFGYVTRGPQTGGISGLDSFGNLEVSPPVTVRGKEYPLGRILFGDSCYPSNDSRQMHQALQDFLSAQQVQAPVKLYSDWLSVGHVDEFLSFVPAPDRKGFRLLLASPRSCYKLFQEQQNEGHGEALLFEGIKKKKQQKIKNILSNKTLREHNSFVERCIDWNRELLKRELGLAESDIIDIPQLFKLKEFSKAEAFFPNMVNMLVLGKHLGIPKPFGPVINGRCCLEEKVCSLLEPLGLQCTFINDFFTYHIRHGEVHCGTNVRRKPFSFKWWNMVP

A word on the IC50: it is the concentration needed to halve the response being measured. For the compound `COc1cc(C(=O)N2CCC[C@@H](N)C2)cc2nc(-c3cc4ccc5nc4n3C[C@@H]3C[C@H]3COCCC(=O)N[C@@H]5C)n(C)c12` [Example 150, (3~{R},5~{R},12~{R})-18-[5-[(3~{R})-3-aminopiperidine-1-carbonyl]-7-methoxy-1-methyl-benzimidazol-2-yl]-12-methyl-7-oxa-1,11,20-triazatetracyclo[11.5.2.0^{3,5}.0^{16,19}] icosa-13(20),14,16(19),17-tetraen-10-one], the IC50 turned out to be 107 nM.

Take `C[C@H]1NC(=O)[C@@H]2C[C@@]2(F)CCCCCn2c(-c3nc4cc(C(=O)N5C[C@H](N)[C@@H]6CC[C@H]5C6)ccc4n3C3CC3)cc3ccc1nc32` [Example 923, (2~{R},5~{S},7~{S})-14-[5-[(1~{S},4~{R},5~{R})-4-amino-2-azabicyclo[3.2.1]octane-2-carbonyl]-1-cyclopropyl-benzimidazol-2-yl]-7-fluoro-2-methyl-3,13,19-triazatetracyclo [11.5.2.0^{5,7}.0^{16,20}] icosa-1(19),14,16(20), 17-tetraen-4-one]: the IC50 was found to be 24 nM.

For `COc1cc(C(=O)N2[C@H]3CC[C@@H]2[C@H](N)C3)cc2nc(-c3cc4ccc5nc4n3CCCCCOCC(=O)N[C@@H]5C)c(C)n12` [Example 247, (11~{R})-17-[7-[(1~{R},2~{R},4~{S})-2-amino-7-azabicyclo[2.2.1]heptane-7-carbonyl]-5-methoxy-3-methyl-imidazo[1,2-a]pyridin-2-yl]-11-methyl-7-oxa-1,10,19-triazatricyclo[10.5.2.0^{15,18}]nonadeca-12(19),13,15(18),16-tetraen-9-one], the IC50 came out at 18 nM.

As for `COc1cc(C(=O)N2C[C@H](N)[C@@H]3CC[C@H]2C3)cc2nc(-c3cc4ccc5nc4n3CCCCCc3nc(Cl)ccc3C(=O)N[C@@H]5C)n(C)c12` [Example 713, (2~{R})-17-[5-[(1~{S}, 4~{R},5~{R})-4-amino-2-azabicyclo[3.2.1]octane-2-carbonyl]-7-methoxy-1-methyl-benzimidazol-2-yl]-8-chloro-2-methyl-3,9,16,22-tetrazatetracyclo [14.5.2.0^{5,10).0^{19,23}] tricosa-1(22),5(10),6,8,17,19(23), 20-heptaen-4-one], the IC50 worked out at 19 nM.

With `COc1cc(C(=O)N2CCC[C@@H](N)C2)cc2nc(-c3cc4ccc5nc4n3CCCCCCCC(=O)NC5)n(C)c12` [Example 232, 17-[5-[(3~{R})-3-aminopiperidine-1-carbonyl]-7-methoxy-1-methyl-benzimidazol-2-yl]-1,10,19-triazatricyclo[10.5.2.0^{15,18}]nonadeca-12(19),13,15(18),16-tetraen-9-one], the IC50 came to 549 nM.

For the compound `COc1cc(C(=O)N[C@H]2CNCC[C@@H]2F)cc2nc(-c3cc4ccc5nc4n3CCCCC[C@@H]3[C@@H](C(=O)N[C@@H]5C)C3(F)F)n(C)c12` [Example 369, 2-[(2~{R},5~{S},7~{R})-6,6-difluoro-2-methyl-4-oxo-3,13,19-triazatetracyclo[11.5.2.0^{5,7}.0^{16,20}]icosa-1(19),14,16(20),17-tetraen-14-yl]- ~{N}-[(3~{S},4~{S})-4-fluoro-3-piperidyl]-7-methoxy-1-methyl-benzimidazole-5-carboxamide], the IC50 stood at 37 nM.

As for `C[C@H]1NC(=O)[C@@H]2C[C@H]2CCCC(F)(F)Cn2c(-c3nc4cc(C(=O)N[C@H]5CNCC[C@@H]5F)c(F)c(F)c4n3C)cc3ccc1nc32` [Example 560, 2-[(2~{R},5~{R},7~ {R})-11,11-difluoro-2-methyl-4-oxo-3,13,19-triazatetracyclo[11.5.2.0^ {5,7}.0^{16,20}]icosa-1(19), 14,16(20),17-tetraen-14-yl]-6,7-difluoro-~{N}-[(3~{S},4~{S})-4-fluoro-3-piperidyl]-1-methyl-benzimidazole-5-carboxamide], the IC50 stood at 52 nM.

Regarding `COc1cc(C(=O)N2[C@H]3CC[C@@H]2[C@H](N)C3)cc2nc(-c3cc4ccc5cc4n3CCCCCC[C@](C)(OC)C(=O)N[C@@H]5C)n(C)c12` [Example 339, (8~{S),11~{R})-17-[5-[(1~{R},2~{R},4~{S})-2-amino-7-azabicyclo[2.2.1]heptane-7-carbonyl]-7-methoxy-1-methyl-benzimidazol-2-yl]-8-methoxy-8,11-dimethyl-1,10-diazatricyclo[10.5.2.0^{15,18}]nonadeca-12(19),13,15(18),16-tetraen-9-one], the IC50 came out at 39 nM.

Consider `C[C@H]1NC(=O)[C@H]2[C@H](CCCCCn3c(-c4nc5cc(C(=O)N6C[C@H](N)[C@@H]7CC[C@H]6C7)cc(F)c5n4C4CC4)cc4ccc1nc43)C2(F)F` [Example 775, (2~{R},5~{R},7~{S})-14-[5-[(1~{S},4~{R},5~{R})-4-amino-2-azabicyclo[3.2.1]octane-2-carbonyl]-1-cyclopropyl-7-fluoro-benzimidazol-2-yl]-6,6-difluoro-2-methyl-3,13,19-triazatetracyclo[11.5.2.0^ {5,7).0^{16,20}]icosa-1(19),14,16(20),17-tetraen-4-one], for which the IC50 came out at 29 nM.

For the compound `COc1cc(C(=O)N2[C@H]3CC[C@@H]2[C@H](N)C3)cc2nc(-c3cc4ccc5nc4n3CCCCCC(=O)N3CCC[C@H]53)n(C)c12` [Example 128, (2~{R})-14-[5-[(1~{R},2~{R},4~{S})-2-amino-7-azabicyclo[2.2.1]heptane-7-carbonyl]-7-methoxy-1-methyl-benzimidazol-2-yl]-6,13,19-triazatetracyclo[11.5.2.0^{2,6}.0^{16,20}] icosa-1(19),14,16(20),17-tetraen-7-one], the IC50 worked out at 13 nM.

For the compound `COc1cc(C(=O)N2C[C@H](N)[C@@H]3CC[C@H]2C3)cc2nc(-c3cc4ccc5nc4n3CCCCCc3nc(Cl)ccc3C(=O)N[C@@H]5C)c(C)n12` [Example 811, (2~{R})-17-[7-[(1~{S),4~ {R},5~{R})-4-amino-2-azabicyclo[3.2.1]octane-2-carbonyl]-5-methoxy-3-methyl-imidazo[1,2-a]pyridin-2-yl]-8-chloro-2-methyl-3,9,16,22-tetrazatetracyclo[14.5.2.0^ {5,10).0^{19,23}]tricosa-1(21),5(10),6,8,17,19,22-heptaen-4-one], the IC50 turned out to be 26 nM.

Take `COc1cc(C(=O)N2CC[C@@H](OC)[C@@H](N)C2)cc2nc(-c3cc4ccc5nc4n3CCCCCc3cc(Cl)ncc3C(=O)N[C@@H]5C)n(C)c12` [Example 653, 17-[5-[(3~{S},4~{R})-3-amino-4-methoxy-piperidine-1-carbonyl]-7-methoxy-1-methyl-benzimidazol-2-yl]-8-chloro-2-methyl-3,7,16,22-tetrazatetracyclo[14.5.2.0^ {5,10}.0^{19,23}] tricosa-1(22),5,7,9,17,19(23), 20-heptaen-4-one]: the IC50 amounted to 44 nM.

Turning to `COC1(Cn2c(-c3cc4ccc5nc4n3CCCCC[C@@H]3C[C@H]3C(=O)N[C@@H]5C)nc3cc(C(=O)N[C@H]4CNCC[C@@H]4F)c(F)cc32)CC1` [Example 404, 6-fluoro-~{N}-[(3~{S},4~{S})-4-fluoro-3-piperidyl]-1-[(1-methoxycyclopropyl)methyl]-2-[(2~{R},5~{R},7~{R})-2-methyl-4-oxo-3,13,19-triazatetracyclo[11.5.2.0^{5,7}.0^{16,20}]icosa-1(19),14,16(20),17-tetraen-14-yl]benzimidazole-5-carboxamide], the IC50 is 83 nM.
